Results reported in US6521608B1, “Vitamin D and its analogs in the treatment of tumors and other hyperproliferative disorders” (Oregon Health & Science University, priority 1998, dated 2003).
“And” between values parts separate entries of the source, which are not always exact repeats. Equal values may be shown once. Read-outs that look alike come from different tables or passages of the source.

Tests used:
myelodysplastic syndrome = details: 2 mcg daily for 8 weeks or longer, cited from earlier work
[1] = cited from earlier work
[2] = system: hormone refractory prostate cancer; details: daily oral dose of 0.5-1.5 mcg, fourteen patients; cited from earlier work
[3] = Trial of weekly pulse oral calcitriol: toxicities graded by NCI Common Toxicity Criteria; format: in vivo, human
Experimental: (§1) Eligibility criteria included histologically confirmed malignancy refractory to standard therapy; age ≧18 years; expected survival of >2 months; ECOG performance status ≦2; hematocrit ≧30; serum creatinine ≦1.2 mg/dL; serum calcium ≦10.5 mg/dL; serum phosphate <4.2 mg/dL; ALT ≦60 IUIL; total serum bilirubin <2 mg/dL. Exclusion criteria included pregnancy, history of hypercalcemia, kidney stones, heart failure or significant heart disease including myocardial infarction in the last 3 months, known cardiac ejection fraction less than 30%, current digoxin therapy, thiazide diuretic therapy within 7 days, bisphosphonate treatment within 4 weeks, systemic steroid therapy within 2 weeks, and unwillingness or inability to stop all magnesium containing antacids, bile resin binding drugs, or calcium supplements for the duration of the study.
(§2) Patients were asked to maintain a reduced calcium diet for the four treatment weeks, with a goal of less than 500 mg per day, as described in Example 1. Calcitriol (Rocaltrol®, Roche Pharmaceuticals) was given orally once a week for four weeks. Each weekly dose was given in four divided doses given hourly over four hours. The starting dose was 0.06 μg/kg.
(§3) Complete blood count, serum creatinine, total serum bilirubin, ALT, alkaline phosphatase were monitored weekly. Serum calcium and phosphate were checked on the treatment day (day 1), and on days 2 and 3. Twenty-four hour urinary calcium excretion was measured on day 2. The 1,25-dihydroxyvitaunin D levels were measured by ^125I radioimmunoassay (Incstar, Stillwater, Minn.) and by a radioreceptor assay using calf thymus 1,25-dihydroxyvitamin D receptor (Endocrine Sciences, Calabasas Hills, Calif.). Peak levels were measured two hours after all the pills had been ingested. Trough levels were measured approximately 48 hours later.
After completing the four week treatment period, patients were monitored for four additional weeks. Serum calcium was checked in weeks 5 and 7 and tumor measurements were obtained in week 7. […] Response was assessed according to WHO guidelines. […]

[4] = system: LNCaP human prostate cancer cells; details: LNCaP cells in vitro, Skowronski et al., cited from earlier work
[5] = Trial of weekly pulse oral calcitriol: plasma/serum 1,25-dihydroxyvitamin D levels (radioimmunoassay, radioreceptor assay); format: in vivo, human; set-up: Mean 48 hour 1,25-dihydroxyvitamin D level: unit not given here; details: for Mean peak 1,25-dihydroxyvitamin D level: peak two hours after all pills; for Mean 48 hour 1,25-dihydroxyvitamin D level: trough approximately 48 hours later
Experimental: In this example a person with metastatic malignant melanoma of the right jaw received a dose of 37 mcg of calcitriol (Rocaltrol, Roche) administered as 74 tablets (0.5 mcg each tablet) divided into four nearly equal doses given in hour one, two, three and four. The patient received this same therapy on day 1, 8, 15 and 22, and observed until at least day 56. The level of calcitriol in a plasma sample obtained two hours after the last dose of calcitriol (on week one) was determined using a commercial assay at Endocrine Sciences, Inc. The level was 1826 pg/ml, compared to the range for calcitriol levels in normal controls being 21 to 65 pg/ml.
as §2, §3

[6] = relative to calcitriol = 1; cited from earlier work
[7] = system: breast carcinoma metastatic to the skeleton; experiment: Case history: treatment of breast cancer with weekly pulse calcitriol; format: in vivo, human; details: 11 mcg po on day 1, 8, 15, 22; for serum tumor marker CA15-3: 445 pre-treatment
From the text: In this example, a person with breast carcinoma metastatic to numerous sites in the skeleton received a dose of 11 mcg of calcitriol (Rocaltrol, Roche) administered as […] (0.5 mcg each tablet) divided into four nearly equal doses given in hour one, two, three and four. The patient received this same therapy on day 1, 8, 15 and 22, and then was observed on study until day 56, and tolerated the treatment well. […] Objective benefits included a progressive decrease in the serum tumor marker CA15-3 from 445 (pre-treatment) to 365 (day 27), 365 (day 48) and 320 (day 70). […] No new lesions or pathologic fractures identified were identified by day 64.

ovarian cancer = details: continuous dose; cited from earlier work
[8] = system: malignancy refractory to standard therapy; experiment: Trial of weekly pulse oral calcitriol: tumor response (WHO guidelines, tumor markers); format: in vivo, human
Experimental: as §1, §2
After completing the four week treatment period, patients were monitored for four additional weeks. Serum calcium was checked in weeks 5 and 7 and tumor measurements were obtained in week 7. All toxicities were graded according to NCI Common Toxicity Criteria. Response was assessed according to WHO guidelines.

[9] = Trial of weekly pulse oral calcitriol: serum calcium, serum phosphate, 24 hour urinary calcium; format: in vivo, human; details: for Mean serum phosphate: 3.43 (SD 0.56) prior to treatment; for Mean serum calcium: 9.55 (SD 0.57) prior to treatment
Experimental: as §2, §3

[10] = single oral dose of 4 mcg, healthy volunteers, Mason et al.

Structure (SMILES): C=C1/C(=C\C=C2/CCC[C@]3(C)[C@@H]([C@H](C)CCCC(C)(C)O)CC[C@@H]23)C[C@@H](O)C[C@@H]1O [calcitriol, 1α,25-dihydroxycholecalciferol]
- patients who experienced symptomatic hypercalcemia (myelodysplastic syndrome; 18 patients): 4
- patients with minor and transient improvements in the peripheral blood counts (myelodysplastic syndrome): Eight of 18
- peak 1,25-dihydroxyvitamin D serum concentrations ([1]; 2 mcg single oral dose, healthy volunteers, Papapoulus et al.): 0.235 nM and 0.351 nM
- patients with a serum calcium above 10.8 ([1]; 4 mcg per day for 4 days, postmenopausal women, no clinically significant hypercalcemia, Geusens et al.): Four of the 27
- peak of stable serum levels of 1,25-dihydroxyvitamin D ([1]; 32 mcg/day for 3 months, patients with osteopetrosis, no hypercalcemia, Key et al.): 2.32 nM
- duration of hypercalcemic effect ([1]; in vivo): 3 to 5 days
- serum half life ([1]; in vivo): 3 to 6 h
- time after administration at which intestinal absorption of calcium begins to increase ([1]; in vivo): 2 h
- time of maximal hypercalcemic effect ([1]; in vivo): 10 h
- time at which peak serum concentration is reached ([1]; replacement therapy doses): 2 h
- peak 1,25-dihydroxyvitamin D serum concentrations [1, 10]: 0.42 nM
- serum calcium [1, 10]: no elevation in serum calcium
- serum calcium ([1]; up to 2.7 mcg/day for 7 to 15 days, normal volunteers, Brickman et al.): no significant elevations in serum calcium were observed
- stable 1,25-dihydroxyvitamin D serum levels ([1]; up to 3 mcg/day for 6-12 days, normal volunteers, Adams et al.): 0.184 to 0.235 nM
- elevation in serum calcium ([1]; up to 3 mcg/day for 6-12 days, patients on a low calcium diet, Adams et al.): None of the patients
- patients who experienced hypercalcemia [2]: Thirteen
- response [2]: no significant response was demonstrated
- deaths in the trial ([3]; 15 patients, 20 cycles): No deaths occurred
- intermittent dose tolerated without hypercalcemia ([3]; given intermittently): ≤ 0.48 µg/kg
- dose-limiting hypercalcemic toxicity ([3]; in vivo): No patient developed dose-limiting hypercalcemic toxicity
- concentration giving measurable growth inhibition [4]: 0.1 nM
- IC50 ([4]; read-out: concentration giving 50% growth inhibition): 1 nM
- Serum 1,25-dihydroxyvitamin D trough levels ([5]; 48 hours, normal range 0.05-0.16 nM): returned to normal or near normal levels by 48 hours
- Mean peak 1,25-dihydroxyvitamin D level ([5]; dose level 0.06 μg/kg po over four hours, 1 patient): 0.71 nM
- Mean 48 hour 1,25-dihydroxyvitamin D level ([5]; dose level 0.06 μg/kg po): 0.27
- Mean peak 1,25-dihydroxyvitamin D level ([5]; dose level 0.24 μg/kg po over four hours, 1 patient): 2.27 nM
- Mean 48 hour 1,25-dihydroxyvitamin D level ([5]; dose level 0.24 μg/kg po): 0.21
- Mean peak 1,25-dihydroxyvitamin D level ([5]; dose level 0.48 μg/kg po over four hours, 2 patients): 4.11 nM
- Mean 48 hour 1,25-dihydroxyvitamin D level ([5]; dose level 0.48 μg/kg po): 0.23
- Mean peak 1,25-dihydroxyvitamin D level ([5]; dose level 0.80 μg/kg po over four hours, 1 patient): 3.53 nM
- Mean peak 1,25-dihydroxyvitamin D level ([5]; dose level 0.96 μg/kg po over four hours, 1 patient): 3.83 nM
- Mean peak 1,25-dihydroxyvitamin D level ([5]; dose level 1.60 μg/kg po over four hours, 2 patients): 3.65 nM
- Mean peak 1,25-dihydroxyvitamin D level ([5]; dose level 1.92 μg/kg po over four hours, 1 patient): 3.34 nM
- Mean peak 1,25-dihydroxyvitamin D level ([5]; dose level 2.00 μg/kg po over four hours, 6 patients): 4.07 nM
- Mean 48 hour 1,25-dihydroxyvitamin D level ([5]; dose level 2.00 μg/kg po): 0.26
- Mean peak 1,25-dihydroxyvitamin D level ([5]; dose level 2.80 μg/kg po over four hours, 2 patients): 2.96 nM
- effect of dose escalation beyond 0.48 μg/kg on peak calcitriol levels ([5]; dose levels up to 2.80 μg/kg po): did not result in further increases in peak calcitriol levels
- concentration at 2 h ([5]; male, human, plasma, melanoma patient, 37 mcg po in four hourly doses, sample two hours after the last dose, week one, normal controls 21 to 65 pg/ml, read-out: level of calcitriol in plasma): 1.83 ng/mL
- Peak blood levels of calcitriol above the upper limit of normal ([5]; pulsed weekly administration): about 25 fold
- clearance of calcitriol from the blood ([5]; weekly pulse schedule): essentially completely cleared from the blood by day 3
- peak blood calcitriol levels in patients ([5]; weekly pulse schedule, highest level seen): up to 8.9 nM
- calcemic index (CI) [6]: 1
- Radiologic evaluation of areas of known bony involvement [7]: progressive sclerosis of multiple lesions in the pelvis and right hip
- Subjective beneficial effects [7]: a reduction in pain and in analgesia required
- serum tumor marker CA15-3 ([7]; day 27): 365
- serum tumor marker CA15-3 ([7]; day 48): 365
- serum tumor marker CA15-3 ([7]; day 70): 320
- hypercalcemia (ovarian cancer): encountered hypercalcemia
- decline in serum AFP level ([8]; hepatocellular carcinoma patient, two cycles (0.80 and 1.60 μg/kg)): 70%
- patients with measurable disease with evidence of progressive disease ([8]; of eight patients): three
- patients without measurable disease with tumor marker or clinical evidence of progressive disease ([8]; of seven patients): three
- PSA course in a prostate cancer patient ([8]; two cycles of therapy, rapidly rising PSA prior to enrollment): stable PSA for the entire 16 weeks
- patients without measurable disease with no evidence of progression ([8]; weekly pulse calcitriol): Four of seven
- patients with measurable disease who had stable disease ([8]; weekly pulse calcitriol, tumor measurements week 7): Five of eight
- serum calcium and other chemical and hematological parameters, melanoma patient ([9]; 37 mcg po on day 1, 8, 15, 22): remained normal
- Mean serum phosphate ([9]; 24 hours after dose, normal range 2.2-4.2): 3.98 (SD 0.57) mg/dL
- Mean serum calcium ([9]; 24 hours after dose, normal range 8.5-10.5): 9.76 (SD 0.63) mg/dL
- Mean serum phosphate ([9]; 48 hours after dose, p<0.0001): 3.86 (SD 0.53) mg/dL
- Mean serum calcium ([9]; 48 hours after dose, p=0.0002): 9.88 (SD 0.68) mg/dL
- time for calcium levels above the normal range to return to normal ([9]; no intervention): ≤ 2 days
- 24 hour urinary calcium excretion, range ([9]; on treatment, day 2 of each treatment week, 44-292 prior to treatment): 59 to 594 mg
- Mean 24 hour urinary calcium excretion ([9]; on treatment, day 2 of each treatment week, 130 (SD 62) prior to treatment, normal range 100-300): 263 (SD 125) mg
